Source: US10183022B2, “Pharmaceutical composition for treating ulcerative colitis” (EA Pharma Co., Ltd., priority 2014, dated 2019)

System: ulcerative colitis patients in an active stage
Test: Clinical study, 960 mg orally 3 times a day for 8 weeks: subscore for stool frequency of Mayo score
Type: in vivo, human
Parameters: Cases by subscore for stool frequency, figure in parentheses: unit not given here
Description: The compound of Example 1 or the compound of Comparative Example 1 was orally administered after meals 3 times a day. The number of the given tablets was 8 per administration (i.e., the amount of the compound (1) of Example 1 administered was 960 mg per administration). The administration period was 8 weeks. The compounds were administered until the timing after the breakfast on the day before the assessment day at Week 8.
[Investigation Timings: Weeks 0, 2, 4, and 8 (or Discontinuation Time)]
Based on the contents described in the symptom-recording diaries and so on, the investigators or sub-investigators investigated stool frequencies in 3 days immediately before each assessment day. Note that when the endoscopic examination on the large intestine was conducted, the investigation days were set to be the closest three days excluding the day of the endoscopic examination on the large intestine, the following day, and if a pre-treatment was performed for the endoscopic examination on the large intestine, the pre-treatment day.
The investigators or sub-investigators investigated the stool frequency per day before the primary disease appeared, which served as a “normal frequency.” An average value (rounded to the nearest whole number) of the stool frequencies of the investigated three days was compared with the “normal frequency,” and scored according to the following criteria.

COC(=O)[C@H](Cc1ccc(-n2c(=O)c3cc(N(C)C)ccc3n(C)c2=O)cc1)NC(=O)c1c(Cl)cccc1Cl [Example 1, methyl(2S)-2-(2,6-dichlorobenzamide)-3-{4-[6-(dimethylamino)-1-methyl-2,4-dioxo-1,4-dihydroquinazolin-3(2H)-yl]phenyl}propanoate]
Number of cases, cross tabulation of subscore for stool frequency (Week 2 score 0, Week 0 score 0): 2
Number of cases, cross tabulation of subscore for stool frequency (Week 2 score 0, Week 0 score 1): 1
Number of cases, cross tabulation of subscore for stool frequency (Week 2 score 0, Week 0 score 2): 1
Number of cases, cross tabulation of subscore for stool frequency (Week 2 score 0, Week 0 score 3): 1
Number of cases, cross tabulation of subscore for stool frequency (Week 2 score 1, Week 0 score 0): 0
Number of cases, cross tabulation of subscore for stool frequency (Week 2 score 1, Week 0 score 1): 6
Number of cases, cross tabulation of subscore for stool frequency (Week 2 score 1, Week 0 score 2): 5
Number of cases, cross tabulation of subscore for stool frequency (Week 2 score 1, Week 0 score 3): 2
Number of cases, cross tabulation of subscore for stool frequency (Week 2 score 2, Week 0 score 0): 0
Number of cases, cross tabulation of subscore for stool frequency (Week 2 score 2, Week 0 score 1): 2
Number of cases, cross tabulation of subscore for stool frequency (Week 2 score 2, Week 0 score 2): 15
Number of cases, cross tabulation of subscore for stool frequency (Week 2 score 2, Week 0 score 3): 8
Number of cases, cross tabulation of subscore for stool frequency (Week 2 score 3, Week 0 score 0): 0
Number of cases, cross tabulation of subscore for stool frequency (Week 2 score 3, Week 0 score 1): 0
Number of cases, cross tabulation of subscore for stool frequency (Week 2 score 3, Week 0 score 2): 0
Number of cases, cross tabulation of subscore for stool frequency (Week 2 score 3, Week 0 score 3): 8
Cases by subscore for stool frequency, figure in parentheses (Week 4, score 0): 11.8
Number of cases by subscore for stool frequency (Week 4, score 0): 6
Cases by subscore for stool frequency, figure in parentheses (Week 4, score 1): 47.1
Number of cases by subscore for stool frequency (Week 4, score 1): 24
Cases by subscore for stool frequency, figure in parentheses (Week 4, score 2): 25.5
Number of cases by subscore for stool frequency (Week 4, score 2): 13
Cases by subscore for stool frequency, figure in parentheses (Week 4, score 3): 15.7
Number of cases by subscore for stool frequency (Week 4, score 3): 8
Number of cases, cross tabulation of subscore for stool frequency (Week 4 score 0, Week 0 score 0): 2
Number of cases, cross tabulation of subscore for stool frequency (Week 4 score 0, Week 0 score 1): 1
Number of cases, cross tabulation of subscore for stool frequency (Week 4 score 0, Week 0 score 2): 3
Number of cases, cross tabulation of subscore for stool frequency (Week 4 score 0, Week 0 score 3): 0
Number of cases, cross tabulation of subscore for stool frequency (Week 4 score 1, Week 0 score 0): 0
Number of cases, cross tabulation of subscore for stool frequency (Week 4 score 1, Week 0 score 1): 7
Number of cases, cross tabulation of subscore for stool frequency (Week 4 score 1, Week 0 score 2): 12
Number of cases, cross tabulation of subscore for stool frequency (Week 4 score 1, Week 0 score 3): 5
Number of cases, cross tabulation of subscore for stool frequency (Week 4 score 2, Week 0 score 0): 0
Number of cases, cross tabulation of subscore for stool frequency (Week 4 score 2, Week 0 score 1): 1
Number of cases, cross tabulation of subscore for stool frequency (Week 4 score 2, Week 0 score 2): 6
Number of cases, cross tabulation of subscore for stool frequency (Week 4 score 2, Week 0 score 3): 6
Number of cases, cross tabulation of subscore for stool frequency (Week 4 score 3, Week 0 score 0): 0
Number of cases, cross tabulation of subscore for stool frequency (Week 4 score 3, Week 0 score 1): 0
Number of cases, cross tabulation of subscore for stool frequency (Week 4 score 3, Week 0 score 2): 0
Number of cases, cross tabulation of subscore for stool frequency (Week 4 score 3, Week 0 score 3): 8
Cases by subscore for stool frequency, figure in parentheses (Week 8, score 0): 21.6
Number of cases by subscore for stool frequency (Week 8, score 0): 11
Cases by subscore for stool frequency, figure in parentheses (Week 8, score 1): 45.1
Number of cases by subscore for stool frequency (Week 8, score 1): 23
Cases by subscore for stool frequency, figure in parentheses (Week 8, score 2): 17.6
Number of cases by subscore for stool frequency (Week 8, score 2): 9
Cases by subscore for stool frequency, figure in parentheses (Week 8, score 3): 15.7
Number of cases by subscore for stool frequency (Week 8, score 3): 8
Number of cases, cross tabulation of subscore for stool frequency (Week 8 score 0, Week 0 score 0): 2
Number of cases, cross tabulation of subscore for stool frequency (Week 8 score 0, Week 0 score 1): 3
Number of cases, cross tabulation of subscore for stool frequency (Week 8 score 0, Week 0 score 2): 4
Number of cases, cross tabulation of subscore for stool frequency (Week 8 score 0, Week 0 score 3): 2
Number of cases, cross tabulation of subscore for stool frequency (Week 8 score 1, Week 0 score 0): 0
Number of cases, cross tabulation of subscore for stool frequency (Week 8 score 1, Week 0 score 1): 5
Number of cases, cross tabulation of subscore for stool frequency (Week 8 score 1, Week 0 score 2): 11
Number of cases, cross tabulation of subscore for stool frequency (Week 8 score 1, Week 0 score 3): 7
Number of cases, cross tabulation of subscore for stool frequency (Week 8 score 2, Week 0 score 0): 0
Number of cases, cross tabulation of subscore for stool frequency (Week 8 score 2, Week 0 score 1): 1
Number of cases, cross tabulation of subscore for stool frequency (Week 8 score 2, Week 0 score 2): 5
Number of cases, cross tabulation of subscore for stool frequency (Week 8 score 2, Week 0 score 3): 3
Number of cases, cross tabulation of subscore for stool frequency (Week 8 score 3, Week 0 score 0): 0
Number of cases, cross tabulation of subscore for stool frequency (Week 8 score 3, Week 0 score 1): 0
Number of cases, cross tabulation of subscore for stool frequency (Week 8 score 3, Week 0 score 2): 1
Number of cases, cross tabulation of subscore for stool frequency (Week 8 score 3, Week 0 score 3): 7
